# In US8993565B2, “(6-oxo-1,6-dihydropyrimidin-2-yl)amide derivatives, preparation thereof and pharmaceutical use thereof as AKT(PKB) phosphorylation inhibitors” (Sanofi, priority 2009, dated 2015):
# Experiments:
# [1] = tested on: AKT protein phosphorylated on serine 473 (pAKT-S473); assay: Study of pAKT expression in PC3 human prostate carcinoma cells measured by western blotting (Test A); type: cell-based; settings: PC-3, inhibition of AKT phosphorylation (pAKT-S473), 1 to 2 hours incubation, absolute IC50, mean of two experiments
# Method: The inhibitory activity of the molecules on AKT phosphorylation is measured either by western blotting using the technique described below, or by the MSD Multi-spot Biomarker detection technique from Meso Scale Discovery also described below.
# Study of pAKT Expression in PC3 Human Prostate Carcinoma Cells Measured by Western Blotting (Test A):
# On day 2, the cells are incubated in the presence or absence of the test products for 1 to 2 hours at 37° C. in the presence of 5% CO2. The molecules, diluted in dimethyl sulphoxide (DMSO Sigma #D2650), are added from a 10-times concentrated stock solution, the final percentage of DMSO being 0.1%. The molecules are tested either at a single concentration of less than or equal to 10 μM, or at increasing concentrations in a range that can extend from less than 1 nM to 10 μM.
# After this incubation, the cells are lysed for the preparation of the proteins.
# The lysate is centrifuged for 10 min at 6000 rpm. 155 μl of supernatant are recovered. 150 μl are incubated for denaturation for 5 min at 95° C. in the presence of 4× NuPAGE LDS Sample Buffer diluted 4-fold (InVitrogen ref NP0007) and of 10× NuPAGE Sample Reducing Agent diluted 10-fold (InVitrogen ref NP0009). These samples are then frozen at −20° C.
# The gel is then transferred on to an Invitrolon PVDF membrane (Invitrogen #LC2007) permeabilised beforehand and for a few seconds in ethanol (Ethanol Fischer Scientific #E/0600DF/15).
# The transfer is carried out in a Biorad tank at 30 volts overnight or at 60 volts for 3 hours, in the presence of 20× NUPAGE Transfer Buffer diluted 20-fold (InVitrogen ref NP0006).
# The membrane is then saturated in saturating solution composed of TBS (10× Tris Buffered Saline, Sigma #T5912, diluted 10-fold), 0.1% Tween (Sigma #P5927) and 3% BSA (Bovine Albumin Serum Fraction V, Sigma #A4503) for 6 h after overnight transfer or else for 1 h after transfer for a period of 3 h.
# Two rinses for min in washing solution composed of TBS and 0.1% Tween 20 are carried out before hybridisation of the secondary antibodies.
# The secondary antibodies are diluted 110000th for the rabbit anti-Mouse IgG HRP antibody (W402 Promega) and to 110000th for the goat anti-Rabbit IgG HRP antibody (W401 Promega) in saturating solution, and then shaken for 1 h at ambient temperature.
# Two rinses for 30 min in washing solution are carried out and then a rinse for 5 min in H2O is carried out in order to eliminate the remaining Tween 20.
# The luminescence is read with the FujiFilm device (Ray Test).
# The FUJI device measures the total luminescence signal obtained (AU) for each band selected. It then subtracts the background noise (BG) proportional to the size of the band selected (Area), said background noise being calculated from a specific background noise band, with a view to obtaining the specific signal (AU-BG) for each band. The band obtained in the absence of product and in the presence of 0.1% DMSO is considered to be the 100% signal. The software calculates the % specific activity (Ratio) obtained for each band selected as a function of this 100% signal. The percentage inhibition is calculated for each concentration according to the formula (100%−Ratio).
# Two independent experiments make it possible to calculate the mean of the percentages of inhibition obtained at a given concentration for the products tested only at one concentration.
# Two independent experiments make it possible to calculate the mean of the IC50s.
# [2] = tested on: AKT protein phosphorylated on serine 473 (P-AKT-S473); assay: Study of pAKT expression in PC3 human prostate carcinoma cells measured by the MSD Multi-spot Biomarker Detection technique (Test B); type: cell-based; settings: PC-3, inhibition of AKT phosphorylation (P-AKT-S473), MSD sandwich immunoassay, 1 to 2 h incubation, absolute IC50, mean of 2 experiments
# Summary of the method: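 Lysate P-AKT-S473 quantified by MSD electrochemiluminescent sandwich immunoassay; inhibition vs DMSO and cell-free background, IC50 averaged over 2 experiments.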
IC50 [1],IC50 [2],SMILES
570 nM,74 nM,"O=C(Cc1nc(N2CCOCC2)cc(=O)[nH]1)Nc1cccc(F)c1 [Example 14, N-(3-fluorophenyl)-2-[4-(morpholin-4-yl)-6-oxo-1,6-dihydropyrimidin-2-yl]acetamide]"
290 nM,60 nM,"Cc1cccc(NC(=O)Cc2nc(N3CCOCC3)cc(=O)[nH]2)c1F [Example 41, N-(2-fluoro-3-methylphenyl)-2-[4-(morpholin-4-yl)-6-oxo-1,6-dihydropyrimidin-2-yl]acetamide]"
400 nM,148 nM,"O=C(Cc1nc(N2CCOCC2)cc(=O)[nH]1)Nc1cccc2ocnc12 [Example 42, N-(1,3-benzoxazol-4-yl)-2-[4-(morpholin-4-yl)-6-oxo-1,6-dihydropyrimidin-2-yl]acetamide]"
227 nM,,"O=C(Cc1nc(N2CCOCC2)cc(=O)[nH]1)Nc1ccc(F)c(C2CC2)c1 [Example 52, N-(3-cyclopropyle-4-fluorophenyl)-2-[4-(morpholin-4-yl)-6-oxo-1,6-dihydropyrimidin-2-yl]acetamide]"
807 nM,67 nM,"O=C(Cc1nc(N2CCOCC2)cc(=O)[nH]1)Nc1ccc(F)c(OC(F)(F)F)c1 [Example 54, N-[4-fluoro-3-(trifluoromethoxy)phenyl]-2-[4-(morpholin-4-yl)-6-oxo-1,6-dihydropyrimidin-2-yl]acetamide]"
10000 nM,,"O=C(Cc1nc(N2CCOCC2)cc(=O)[nH]1)Nc1cccc(OCCO)c1 [Example 55, N-[3-(2-hydroxyethoxy)phenyl]-2-[4-(morpholin-4-yl)-6-oxo-1,6-dihydropyrimidin-2-yl]acetamide]"
137 nM,,"O=C(Cc1nc(N2CCOCC2)cc(=O)[nH]1)Nc1cccc(I)c1 [Example 56, N-(3-iodophenyl)-2-[4-(morpholin-4-yl)-6-oxo-1,6-dihydropyrimidin-2-yl]acetamide]"
5860 nM,,"COC(=O)c1cc(NC(=O)Cc2nc(N3CCOCC3)cc(=O)[nH]2)ccc1F [Example 57, methyl 2-fluoro-5-({[4-(morpholin-4-yl)-6-oxo-1,6-dihydropyrimidin-2-yl]acetyl}amino)benzoate]"
760 nM,71 nM,"CCOc1cccc(NC(=O)Cc2nc(N3CCOCC3)cc(=O)[nH]2)c1 [Example 58, N-(3-ethoxyphenyl)-2-[4-(morpholin-4-yl)-6-oxo-1,6-dihydropyrimidin-2-yl]acetamide]"
530 nM,,"O=C(Cc1nc(N2CCOCC2)cc(=O)[nH]1)N1CCOc2ccccc21 [Example 62, 2-[2-(2,3-dihydro-4H-1,4-benzoxazin-4-yl)-2-oxoethyl]-6-(morpholin-4-yl)pyrimidin-4(3H)-one]"
6160 nM,,"O=C(Cc1nc(N2CCOCC2)cc(=O)[nH]1)Nc1ccc(F)c([N+](=O)[O-])c1 [Example 63, N-(4-fluoro-3-nitrophenyl)-2-[4-(morpholin-4-yl)-6-oxo-1,6-dihydropyrimidin-2-yl]acetamide]"
6460 nM,,"O=C(Cc1nc(N2CCOCC2)cc(=O)[nH]1)Nc1cc(F)ccc1O [Example 65, N-(5-fluoro-2-hydroxyphenyl)-2-[4-(morpholin-4-yl)-6-oxo-1,6-dihydropyrimidin-2-yl]acetamide]"
2210 nM,,"Cn1c(CC(=O)Nc2ccc(F)cc2)nc(N2CCOCC2)cc1=O [Example 67, N-(4-fluorophenyl)-2-[1-methyl-4-(morpholin-4-yl)-6-oxo-1,6-dihydropyrimidin-2-yl]acetamide]"
202 nM,79 nM,"Cn1c(CC(=O)Nc2ccc(F)c(Cl)c2)nc(N2CCOCC2)cc1=O [Example 68, N-(3-chloro-4-fluorophenyl)-2-[1-methyl-4-(morpholin-4-yl)-6-oxo-1,6-dihydropyrimidin-2-yl]acetamide]"
5380 nM,120 nM,"O=C(Cc1nc(N2CCOCC2)cc(=O)[nH]1)Nc1cccc2[nH]ccc12 [Example 71, N-(1 H-indol-4-yl)-2-[4-(morpholin-4-yl)-6-oxo-1,6-dihydropyrimidin-2-yl]acetamide]"
